# Assay results: US12419877B2, “Solid forms of {[5-(3-chlorophenyl)-3-hydroxypyridine-2-carbonyl]amino}acetic acid, compositions, and uses thereof” (Akebia Therapeutics, Inc., priority 2013, dated 2025)
# Experiments:
# [1] = Dynamic Vapour Sorption (DVS) with XRPD re-analysis; type: physicochemical
# Experimental: Dynamic Vapour Sorption (DVS) was performed on a DVS-1 dynamic vapour sorption balance by Surface Measurement Systems. Approximately 10-20 mg of sample was loaded into a wire mesh vapour sorption balance pan of the balance. The sample was subjected to a ramping profile from 20-90% relative humidity (RH) in 10% increments, maintaining the sample at each step until a stable weight had been achieved (99.5% step completion) or 1000 minutes had elapsed. After completion of the sorption cycle, the sample was dried using the same procedure, but all the way down to 0% RH and finally taken back to the starting point of 20% RH. The weight change during the sorption/desorption cycles were plotted, allowing for the hygroscopic nature of the sample to be determined. Following the DVS analysis, the solid was re-analysed by XRPD in order to determine whether there had been any change in physical form.
# [2] = Solid form stability in slurries; type: physicochemical; conditions: slurries at high temperature
structure (smiles),measurement,setting,value
"O=C(O)CNC(=O)c1ncc(-c2cccc(Cl)c2)cc1O [Form B, {[5-(3-chlorophenyl)-3-hydroxypyridine-2-carbonyl]amino}acetic acid]",water sorption at 90% RH,"[1]; DVS, 90% RH",0.33%
same,XRPD analysis following DVS (change in physical form),[1]; after DVS sorption/desorption cycle,no change in form
same,hygroscopicity (DVS),[1]; judged from water sorption at 90% RH,non-hygroscopic
same,solid form stability,[2],metastable and can convert to Form A in slurries at high temperature
